Values quoted from earlier work in patent publication US20070048371A1, “Pharmaceutical formulations/composition of guanfacine suitable for single dose form administration daily” (priority 2005, published 2007).
Where a name gives a salt, the structure may show the parent alone.

Conditions: white to off-white powder; cited from earlier work

N=C(N)NC(=O)Cc1c(Cl)cccc1Cl [Guanfacine hydrochloride, N-amidino-2-(2,6-dichlorophenyl) acetamide hydrochloride]
solubility in acetone: slightly soluble
solubility in water and alcohol: sparingly soluble
